Experimental data reported in patent US10961309B2, “Reducing systemic regulatory T cell levels or activity for treatment of disease and injury of the CNS” (Yeda Research and Development Co. Ltd, priority 2014, dated 2021).
“Also recorded” adds a separate entry of the source.

Experiments:
Assay type in all cases: in vivo, mouse
[1] = system: splenocytes (CD4+Foxp3+ Tregs, CD4+ IFN-γ+ T cells); assay: Flow cytometry of splenocytes; conditions: p300i 8.9 mg/kg/d i.p. 1 week vs vehicle (DMSO), aged mice (18 months), a day after cessation
Procedure: (§1) Mice were transcardially perfused with PBS, and tissues were treated as previously described (Baruch et al, 2013). Brains were dissected and the different brain regions were removed under a dissecting microscope (Stemi DV4; Zeiss) in PBS, and tissues were dissociated using the gentleMACS™ dissociator (Miltenyi Biotec). Choroid plexus tissues were isolated from the lateral, third and fourth ventricles of the brain, incubated at 37° C. for 45 min in PBS (with Ca^2+/Mg^2+) containing 400 U/ml collagenase type IV (Worthington Biochemical Corporation), and then manually homogenized by pipetting. Spleens were mashed with the plunger of a syringe and treated with ACK (ammonium chloride potassium) lysing buffer to remove erythrocytes. In all cases, samples were stained according to the manufacturers' protocols. All samples were filtered through a 70 μm nylon mesh, and blocked with anti-Fc CD16/32 (1:100; BD Biosciences). For intracellular staining of IFN-γ, the cells were incubated with […] (10 ng/ml; Sigma-Aldrich) and ionomycin (250 ng/ml; Sigma-Aldrich) for 6 h, and Brefeldin-A (10 μg/ml; Sigma-Aldrich) was added for the last 4 h. Intracellular labeling of cytokines was done with BD Cytofix/Cytoperm™ Plus fixation/permeabilization kit (cat. no. 555028). For Treg staining, an eBioscience FoxP3 staining buffer set (cat. no. 00-5523-00) was used. The following fluorochrome-labeled monoclonal antibodies were purchased from BD Pharmingen, BioLegend, R&D Systems, or eBiosciences, and used according to the manufacturers' protocols: PE or Alexa Fluor 450-conjugated anti-CD4; PE-conjugated anti-CD25; PerCP-Cy5.5-conjugated anti-CD45; FITC-conjugated anti-TCRβ; APC-conjugated anti-IFN-γ; APC-conjugated anti-FoxP3; Brilliant-violet-conjugated anti-CD45. Cells were analyzed on an LSRII cytometer (BD Biosciences) using FlowJo software. In each experiment, relevant negative control groups, positive controls, and single stained samples for each tissue were used to identify the populations of interest and to exclude other populations.

[2] = system: IFN-γ-expressing immune cells in the CP; assay: Flow cytometry of CP IFN-γ-expressing immune cells; conditions: p300i 1 week vs vehicle (DMSO), aged mice (18 months), a day after cessation
Procedure: as §1, with “For Treg staining, an eBioscience FoxP3 staining buffer set (cat. no. 00-5523-00) was used. The following fluorochrome-labeled monoclonal antibodies were purchased from BD Pharmingen, BioLegend, R&D Systems, or eBiosciences, and used according to the manufacturers' protocols: PE or Alexa Fluor 450-conjugated anti-CD4; PE-conjugated anti-CD25; PerCP-Cy5.5-conjugated anti-CD45; FITC-conjugated anti-TCRβ; APC-conjugated anti-IFN-γ; APC-conjugated anti-FoxP3; Brilliant-violet-conjugated anti-CD45.” left out, “In each experiment, relevant negative control groups, positive controls, and single stained samples for each tissue were used to identify the populations of interest and to exclude other populations.” left out

Aβ plaques = assay: Aβ plaque quantitation (immunohistochemistry)
Procedure: Tissue processing and immunohistochemistry were performed on paraffin embedded sectioned mouse (6 μm thick) and human (10 μm thick) brains. For human ICAM-1 staining, primary mouse anti-ICAM (1:20 Abcam; ab2213) antibody was used. Slides were incubated for 10 min with 3% H2O2, and a secondary biotin-conjugated anti-mouse antibody was used, followed by biotin/avidin amplification with Vectastain ABC kit (Vector Laboratories). Subsequently, 3,3′-diaminobenzidine (DAB substrate) (Zytomed kit) was applied; slides were dehydrated and mounted with xylene-based mounting solution. For tissue stainings, mice were transcardially perfused with PBS prior to tissue excision and fixation. CP tissues were isolated under a dissecting microscope (Stemi DV4; Zeiss) from the lateral, third, and fourth ventricles of the brain. For whole mount CP staining, tissues were fixated with 2.5% paraformaldehyde (PFA) for 1 hour at 4° C., and subsequently transferred to PBS containing 0.05% sodium azide. Prior to staining, the dissected tissues were washed with PBS and blocked (20% horse serum, 0.3% Triton X-100, and PBS) for 1 h at room temperature. Whole mount staining with primary antibodies (in PBS containing 2% horse serum and 0.3% Triton X-100), or secondary antibodies, was performed for 1 h at room temperature. Each step was followed by three washes in PBS. The tissues were applied to slides, mounted with Immu-mount (9990402, from Thermo Scientific), and sealed with cover-slips. For staining of sectioned brains, two different tissue preparation protocols (paraffin embedded or microtomed free-floating sections) were applied, as previously described (Baruch et al, 2013; Kunis et al, 2013). The following primary antibodies were used: mouse anti-Aβ (1:300, Covance, #SIG-39320); rabbit anti-GFP (1:100, MBL, #598); rat anti-CD68 (1:300, eBioscience, #14-0681); rat anti-ICAM-1 (1:200, Abcam, #AB2213); goat anti-GFP (1:100, Abcam, #ab6658); rabbit anti-IBA-1 (1:300, Wako, #019-19741); goat anti-IL-10 (1:20, R&D systems, #AF519); rat anti-Foxp3 (1:20, eBioscience, #13-5773-80); rabbit anti-CD3 (1:500, Dako, #IS503); mouse anti-ZO-1, mouse anti-E-Cahedrin, and rabbit anti-Claudin-1 (all 1:100, Invitrogen, #33-9100, #33-4000, #51-9000); rabbit anti-GFAP (1:200, Dako, #Z0334). Secondary antibodies included: Cy2/Cy3/Cy5-conjugated donkey anti-mouse/goat/rabbit/rat antibodies (1:200; all from Jackson Immunoresearch). The slides were exposed to Hoechst nuclear staining (1:4000; Invitrogen Probes) for 1 min. Two negative controls were routinely used in immunostaining procedures, staining with isotype control antibody followed by secondary antibody, or staining with secondary antibody alone. For Foxp3 intracellular staining, antigen retrieval from paraffin-embedded slides was performed using Retreivagen Kit (#550524, #550527; BD Pharmingen™). Microscopic analysis, was performed using a fluorescence microscope (E800; Nikon) or laser-scanning confocal microscope (Carl Zeiss, Inc.). The fluorescence microscope was equipped with a digital camera (DXM 1200F; Nikon), and with either a 20× NA 0.50 or 40× NA 0.75 objective lens (Plan Fluor; Nikon). The confocal microscope was equipped with LSM 510 laser scanning capacity (three lasers: Ar 488, HeNe 543, and HeNe 633). Recordings were made on postfixed tissues using acquisition software (NIS-Elements, F3 [Nikon] or LSM [Carl Zeiss, Inc.]). For quantification of staining intensity, total cell and background staining was measured using ImageJ software (NIH), and intensity of specific staining was calculated, as previously described (Burgess et al, 2010). Images were cropped, merged, and optimized using Photoshop CS6 13.0 (Adobe), and were arranged using Illustrator CS5 15.1 (Adobe).
From each brain, 6 μm coronal slices were collected, and eight sections per mouse, from four different pre-determined depths throughout the region of interest (dentate gyrus or cerebral cortex) were immunostained. […]

[3] = system: soluble Aβ1-40 and Aβ1-42; assay: Soluble Aβ (sAβ) protein quantification by ELISA
Procedure: Tissue homogenization and sAβ protein extraction was performed as previously described (Schmidt et al, 2005). Briefly, cerebral brain parenchyma was dissected and snap-frozen and kept at −80° C. until homogenization. Proteins were sequentially extracted from samples to obtain separate fractions containing proteins of differing solubility. Samples were homogenized in 10 volumes of ice-cold tissue homogenization buffer, containing 250 mM of sucrose, 20 mM of Tris base, 1 mM of ethylenediaminetetraacetic acid (EDTA), and 1 mM of ethylene glycol tetraacetic acid (pH 7.4), using a ground glass pestle in a Dounce homogenizer. After six strokes, the homogenate was mixed 1:1 with 0.4% diethylamine (DEA) in a 100-mM NaCl solution before an additional six strokes, and then centrifuged at 135,000 g at 4° C. for 45 min. The supernatant (DEA-soluble fraction containing extracellular and cytosolic proteins) was collected and neutralized with 10% of 0.5M of Tris-HCl (pH 6.8). Aβ1-40 and Aβ1-42 were individually measured by enzyme-linked immunosorbent assay (ELISA) from the soluble fraction using commercially available kits (Biolegend; #SIG-38954 and #SIG-38956, respectively) according to the manufacturer instructions.

[4] = two courses of p300i, interval of 1 month

CC1=NN(c2ccc(C(=O)O)cc2)C(=O)/C1=C\c1ccc(-c2cc(C)c(C)cc2[N+](=O)[O-])o1 [p300i, 4-(4-((5-(4,5-dimethyl-2-nitrophenyl)furan-2-yl)methylene)-3-methyl-5-oxo-4,5-dihydro-1H-pyrazol-1-yl)benzoic acid]
IFN-γ-expressing cells (CD4+ T cells) in the spleen [1]: elevated levels; also recorded: elevation
IFN-γ-expressing immune cells in the CP [2]: elevated levels; also recorded: elevation
cerebral Aβ plaque load (Aβ plaques; p300i 1 week, examined 3 weeks later, 10-month old AD-Tg mice): significant reduction in cerebral Aβ plaque load
cerebral plaque load (cortex 5th layer) (Aβ plaques; single course of p300i, examined 2 months later, AD-Tg mice age 7 months): reduction of cerebral plaque load was evident
reduction of cerebral plaque load, two courses vs single course (Aβ plaques; two courses of p300i with a 1-month interval): stronger
cerebral sAβ levels ([3]; one course of p300i): effective in reducing cerebral sAβ
cerebral sAβ levels [3, 4]: effective in reducing cerebral sAβ
effect on sAβ1-42, repeated courses vs one course [3, 4]: stronger
